From the NIST ThermoML archive (doi:10.1021/acs.jced.9b00028)
± gives the expanded uncertainty stated by the source.

Experiments:
[1] = Crystal; DSC
[2] = Molar enthalpy of transition or fusion; conditions: Crystal; DSC

| SMILES | Triple point temperature [1] | Molar enthalpy of transition or fusion [2] |
| --- | --- | --- |
| Oc1c(Cl)cc(Cl)c2cccnc12 [5,7-dichloro-8-hydroxyquinoline] | 452.15 ± 1.2 K | 9.51 ± 0.263 kcal/mol |
| Oc1ccc(Cl)c2cccnc12 [5-chloro-8-hydroxyquinoline] | 395.48 ± 1.2 K | 6.05 ± 0.227 kcal/mol |
